# Measurements taken from ChEMBL document CHEMBL1121708, “Synthesis and study of the potential antiallergic activity of some pyrazole derivatives” (1981).
# Experiments:
# Rattus norvegicus [1] = assay: Compound was tested for inhibition of the rat passive cutaneous anaphylaxis (PCA) 1 hr after oral administration; >0<50; type: functional; parameters: concentration or dose not given beside the values
# Rattus norvegicus [2] = assay: Compound was tested for inhibition of the rat passive cutaneous anaphylaxis (PCA) 3h after oral administration; >0<50; type: functional; parameters: concentration or dose not given beside the values
Structure (SMILES),Inhibition (Rattus norvegicus [1]) [%],Inhibition (Rattus norvegicus [2]) [%]
Oc1ccc2c(c1)CCc1c[nH]nc1-2,>0,>0
c1ccc2c(c1)SCc1cn[nH]c1-2,>0,>0
Oc1cccc2c1CCc1c[nH]nc1-2,>0,>0
COc1cccc2c1CCc1c[nH]nc1-2,15,>0
COc1ccc2c(c1)CCc1c[nH]nc1-2,>0,>0
c1ccc2c(c1)OCc1cn[nH]c1-2,>0,>0
c1[nH]nc2c1CCC1c3n[nH]cc3CCC21 (stereo not drawn),77,55
c1ccc2c(c1)CCCc1c[nH]nc1-2,>0,>0
CCc1cc2c(cc1CC)-c1n[nH]cc1CC2,>0,>0
Oc1ccc2c(c1)-c1n[nH]cc1CC2,>0,>0
COc1ccc2c(c1)-c1n[nH]cc1CC2,32,>0
Nc1ccc2[nH]ncc2c1,>0,54
CC1Cc2c[nH]nc2-c2ccccc21 (stereo not drawn),>0,>0
c1ccc2c(c1)CCc1c[nH]nc1-2,>0,>0
